From patent US10745365B2, “Luminogenic and fluorogenic compounds and methods to detect molecules or conditions” (Promega Corporation, priority 2005, dated 2020)
Each block holds one compound with its values, some of them ahead of it.

Columns and labels:
Type in all cases: biochemical
beta-glucuronidase (GUS) = target: T1, beta-glucuronidase (GUS) (Homo sapiens, UniProt P08236); test: Beta-glucuronidase (GUS) assay
T1 construct: purchased Sigma-Aldrich
T1 sequence (P08236 23-651): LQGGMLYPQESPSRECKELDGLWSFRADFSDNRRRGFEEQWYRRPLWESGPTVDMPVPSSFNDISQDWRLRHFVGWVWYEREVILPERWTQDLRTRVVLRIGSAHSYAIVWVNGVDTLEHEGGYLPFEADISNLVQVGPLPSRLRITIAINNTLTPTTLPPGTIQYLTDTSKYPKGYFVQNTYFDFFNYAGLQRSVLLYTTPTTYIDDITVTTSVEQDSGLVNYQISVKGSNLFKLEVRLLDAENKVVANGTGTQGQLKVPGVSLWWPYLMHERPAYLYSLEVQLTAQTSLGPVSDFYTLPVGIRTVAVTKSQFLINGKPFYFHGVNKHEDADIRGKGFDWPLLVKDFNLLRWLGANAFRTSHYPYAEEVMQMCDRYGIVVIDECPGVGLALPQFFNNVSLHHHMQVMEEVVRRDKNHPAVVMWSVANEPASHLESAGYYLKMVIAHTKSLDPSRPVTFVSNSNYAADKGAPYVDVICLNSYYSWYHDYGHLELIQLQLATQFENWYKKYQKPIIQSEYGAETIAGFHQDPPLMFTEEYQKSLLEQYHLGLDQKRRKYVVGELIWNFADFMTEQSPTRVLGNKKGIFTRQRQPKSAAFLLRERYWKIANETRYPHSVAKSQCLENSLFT
Procedure: The source of the human enzyme was Sigma-Aldrich. GUS was incubated with the substrate in 50 mM MES, pH 6.3, for 15 minutes.

[1] = test system: panel of recombinant human P450s; test: Two-step luminescent screen of luciferin derivatives against a panel of recombinant human P450s and HLM; conditions: 50 μM substrate, panel of FIGS. 17-18
Procedure: P450s are Supersomes™ purchased from Discovery Labware (BD/Gentest). […] HLM is human liver microsomes.
1× substrate concentration: 50 μM.
The HLM reactions contained […] reaction, except where indicated otherwise. Control insect cell membranes were at 50 μg/50 μL.
For FIG. 20, the panel of human P450s was screened as described above.

[2] = target: T2, yeast alcohol dehydrogenase (Saccharomyces cerevisiae, UniProt P00330); test: Conversion of luciferol by yeast alcohol dehydrogenase; conditions: room temperature
T2 construct: purchased Sigma Chem Co. A 7011
T2 sequence (P00330 1-348): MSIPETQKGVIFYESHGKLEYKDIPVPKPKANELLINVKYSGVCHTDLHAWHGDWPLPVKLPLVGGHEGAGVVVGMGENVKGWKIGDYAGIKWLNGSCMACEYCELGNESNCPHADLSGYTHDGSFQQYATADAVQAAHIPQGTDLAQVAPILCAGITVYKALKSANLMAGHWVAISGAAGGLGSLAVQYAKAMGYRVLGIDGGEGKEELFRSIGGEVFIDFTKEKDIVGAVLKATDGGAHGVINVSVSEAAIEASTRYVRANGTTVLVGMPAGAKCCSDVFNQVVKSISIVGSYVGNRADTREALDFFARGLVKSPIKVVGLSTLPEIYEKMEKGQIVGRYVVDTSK
Procedure: A luciferin derivative, luciferol, was employed as a substrate for alcohol dehydrogenase (ADH). The derivative was tested in a two step format. For the first step, the derivative was added to a mixture with one of four ADHs. At different times after the reaction was initiated, a portion was removed and mixed with a luciferase reaction mixture. Reactions in which light production increased over time indicate that luciferol is a substrate for the ADH in that reaction.
Y ADH solution: 7500 units of yeast alcohol dehydrogenase (Sigma Chem Co. A 7011) was dissolved in 1 ml of 50 mM Bis Tris pH 6.5.
NAD+ solution: 66 mg of NAD+(Sigma Chem. Co. N 1511-250) was dissolved in 2 ml of Bis Tris, pH 6.5 and 8 ml of water.
Luciferol solution: approximately 4 mg of luciferol was dissolved in 1 ml of dimethylformamide (Aldrich 27,054-7).
AU reactions were kept at room temperature.

signal-to-noise, fluorescence (beta-glucuronidase (GUS); [GUS] 4.3 ng/ml): 7.5 | signal-to-noise, fluorescence (beta-glucuronidase (GUS); [GUS] 8.7 ng/ml): 15.6 | signal-to-noise, fluorescence (beta-glucuronidase (GUS); [GUS] 34.7 ng/ml): 76.5 | signal-to-noise, fluorescence (beta-glucuronidase (GUS); [GUS] 69.4 ng/ml): 164.6 | signal-to-noise, fluorescence (beta-glucuronidase (GUS); [GUS] 138.8 ng/ml): 376.8 | signal-to-noise, fluorescence (beta-glucuronidase (GUS); [GUS] 277.5 ng/ml): 861.4
SMILES: Cc1cc(=O)oc2cc(O[C@@H]3O[C@H](C(=O)O)[C@@H](O)[C@H](O)[C@H]3O)ccc12 [4-methylumbelliferyl glucuronide]

SMILES: Cc1cc(C)c(COc2ccc3nc(C4=N[C@@H](C(=O)O)CS4)sc3c2)c(C)c1 [6′(2,4,6-trimethylbenzyloxy)-luciferin]
P450 enzyme activity / selectivity (words) [1]: selective for three members of the CYP3A subfamily, CYP3A4, CYP3A5 and CYP3A7 | P450 enzyme activity / selectivity (words) ([1]; listed as 6(2,4,6 trimethylbenzyl)-luciferin): showed substantial activity with CYP3A4 and did not show substantial cross reactivity with CYP4F12

SMILES: O=C(O)[C@H]1CSC(c2nc3ccc(OCc4ccccc4C(F)(F)F)cc3s2)=N1 [6′(o-trifluoromethylbenzyloxy)-luciferin]
P450 enzyme activity / selectivity (words) [1]: selective for three members of the CYP3A subfamily, CYP3A4, CYP3A5 and CYP3A7 | P450 enzyme activity / selectivity (words) ([1]; listed as 6—O-trifluoromethylbenzyl luciferin): showed substantial activity with CYP3A4 and did not show substantial cross reactivity with CYP4F12

SMILES: O=C(O)[C@H]1CSC(c2nc3ccc(OCc4c(F)c(F)c(F)c(F)c4F)cc3s2)=N1 [6′-(2,3,4,5,6-pentafluorobenzyloxy)-luciferin]
P450 enzyme activity / selectivity (words) [1]: selective for three members of the CYP3A subfamily, CYP3A4, CYP3A5 and CYP3A7 | P450 enzyme activity / selectivity (words) ([1]; listed as 6(2,3,4,5,6 pentafluorbenzyloxy)-luciferin): showed substantial activity with CYP3A4 and did not show substantial cross reactivity with CYP4F12

P450 enzyme activity / selectivity (words) [1]: showed selectivity for CYP3A7
SMILES: O=C(O)[C@H]1CSC(c2nc3ccc(OCSc4ccc(Cl)cc4)cc3s2)=N1 [6′-p-chlorophenylthiol-methoxy-luciferin, 6-(4-Chloro-phenylthiomethoxy)luciferin]

SMILES: O=C(O)[C@H]1CSC(c2ccc3cc(OCOCc4ccccc4)ccc3n2)=N1 [6′benzyloxymethoxy-quinolylluciferin]
P450 enzyme activity / selectivity (words) [1]: selective for three members of the CYP3A subfamily, CYP3A4, CYP3A5 and CYP3A7

SMILES: O=C(O)C1CSC(c2nc3ccc(OCc4cccc(CN5CCN(c6ccccc6)CC5)c4)cc3s2)=N1 (stereo not drawn) [Luciferin 3-(4-phenylpiperazin-1-yl)methylbenzyl ether]
P450 enzyme activity / selectivity (words) [1]: selective for three members of the CYP3A subfamily, CYP3A4, CYP3A5 and CYP3A7 | P450 enzyme activity / selectivity (words) ([1]; listed as 6′(3-((4-phenylpiperizin-1-yl))methyl)benzyloxy) luciferin): did not cross react with 4F1 2

P450 enzyme activity / selectivity (words) [1]: strong selectivity for CYP1A1
SMILES: O=C(Nc1ccc2nc(C3=NC(C(=O)O)CS3)sc2c1)OCc1ccccc1 (stereo not drawn) [N-benzyloxycarbonyl aminoluciferin]

SMILES: CC(C)COC(=O)Nc1ccc2nc(C3=NC(C(=O)O)CS3)sc2c1 (stereo not drawn) [N-isobutoxycarbonyl aminoluciferin]
P450 enzyme activity / selectivity (words) [1]: strong selectivity for CYP1A1

P450 enzyme activity / selectivity (words) [1]: substrate for 4A11
SMILES: COc1ccc2cc(C3=N[C@@H](C(=O)O)CS3)ccc2c1 [Naphthylluciferin 6-methyl ether]

P450 enzyme activity / selectivity (words) [1]: preferred substrate for 1A2 and 4A1 1 | P450 enzyme activity / selectivity (words) ([1]; listed as quinolyl luciferin-6-methyl ether): enhanced selectivity for CYP4A11
SMILES: COc1ccc2nc(C3=NC(C(=O)O)CS3)ccc2c1 (stereo not drawn) [Quinolylluciferin 6-methyl ether]

SMILES: COC(=O)[C@H]1CSC(c2nc3ccc(OC)cc3s2)=N1 [carboxyl ester of luciferin-ME, carboxyl methyl ester of luciferin-ME]
P450 enzyme activity / selectivity (words) [1]: reacted strongly with several other P450s including CYP2C19

SMILES: COC(=O)[C@H]1CSC(c2nc3ccccc3s2)=N1 [carboxyl methyl ester of deoxyluciferin]
P450 enzyme activity / selectivity (words) [1]: substantial activity with CYP2C19 and strong selectivity for this enzyme over the others tested

P450 enzyme activity / selectivity (words) [1]: preference for 2C19, 1A1 and 1A2
SMILES: O=C(OCc1cccnc1)[C@H]1CSC(c2nc3ccccc3s2)=N1 [carboxyl picolinyl ester of luciferin-H]

P450 enzyme activity / selectivity (words) [1]: extremely low activity with CYP2D6
SMILES: COc1ccc2nc(C3=N[C@@H](C(=O)O)CS3)sc2c1 [luciferin 6-methyl ether, reference compound]

SMILES: COc1ccc2nc(C3=N[C@@H](C(=O)NN)CS3)sc2c1 [luciferin-6-methylether hydrazide]
P450 enzyme activity / selectivity (words) [1]: good selectivity for CYP 1A2 over the other P450s tested

SMILES: OC[C@H]1CSC(c2nc3ccc(O)cc3s2)=N1 [luciferol]
Light produced ([2]; Rx 7: 5 μl yeast ADH, 30 minutes after luciferol addition): 6.184 | Light produced ([2]; Rx 7: 5 μl yeast ADH, 60 minutes after luciferol addition): 6.052 | Light produced ([2]; Rx 7: 5 μl yeast ADH, 95 minutes after luciferol addition): 5.980 | Light produced ([2]; Rx 7: 5 μl yeast ADH, 190 minutes after luciferol addition): 6.640 | Light produced ([2]; Rx 7: 5 μl yeast ADH, 280 minutes after luciferol addition): 7.988 | Light produced ([2]; Rx 8: 10 μl yeast ADH, 30 minutes after luciferol addition): 6.126 | Light produced ([2]; Rx 8: 10 μl yeast ADH, 60 minutes after luciferol addition): 5.468 | Light produced ([2]; Rx 8: 10 μl yeast ADH, 95 minutes after luciferol addition): 5.552 | Light produced ([2]; Rx 8: 10 μl yeast ADH, 190 minutes after luciferol addition): 6.198 | Light produced ([2]; Rx 8: 10 μl yeast ADH, 280 minutes after luciferol addition): 6.903 | Light produced ([2]; Rx 9: 20 μl yeast ADH, 30 minutes after luciferol addition): 5.406 | Light produced ([2]; Rx 9: 20 μl yeast ADH, 60 minutes after luciferol addition): 5.608 | Light produced ([2]; Rx 9: 20 μl yeast ADH, 95 minutes after luciferol addition): 6.301 | Light produced ([2]; Rx 9: 20 μl yeast ADH, 190 minutes after luciferol addition): 5.825 | Light produced ([2]; Rx 9: 20 μl yeast ADH, 280 minutes after luciferol addition): 6.734 | Light produced ([2]; Rx 10: 20 μl yeast ADH, 10 μl luciferol, 30 minutes after luciferol addition): 9.672 | Light produced ([2]; Rx 10: 20 μl yeast ADH, 10 μl luciferol, 60 minutes after luciferol addition): 9.531 | Light produced ([2]; Rx 10: 20 μl yeast ADH, 10 μl luciferol, 95 minutes after luciferol addition): 10.00 | Light produced ([2]; Rx 10: 20 μl yeast ADH, 10 μl luciferol, 190 minutes after luciferol addition): 10.36 | Light produced ([2]; Rx 10: 20 μl yeast ADH, 10 μl luciferol, 280 minutes after luciferol addition): 11.71

SMILES: O=C(O)C1CSC(c2ccc3cc(OCc4ccccc4)ccc3n2)=N1 (stereo not drawn) [quinolylluciferin 6-benzyl ether]
P450 enzyme activity / selectivity (words) [1]: preferred substrate for 3A7, and to a lesser degree a substrate for 3A4 and 2C8

P450 enzyme activity / selectivity (words) [1]: substrate for 4A11
SMILES: COc1ccc2nc(C3=NC(C(=O)O)CS3)cnc2c1 (stereo not drawn) [quinoxalylluciferin 6-methyl ether]
